This is an account of results in patent US20070009484A1, “Compositions and methods involving MDA-7 for the treatment of cancer” (Board of Regents, The University of Texas System, priority 2005, published 2007).

Peptide text beside a SMILES is read from it. * marks the point of attachment. Cbz = O=C(OCc1ccccc1)*; CH2F = FC*

One data set relates to H1299 cells. The experiment in a line: Cell viability assay (trypan blue exclusion). It is filed as cell-based. As to conditions: Ad-mda7 1000 vp/cell; Bivacizumab 0.78, 1.56, 3,125 ug/ml; up to 72 hours. As for the experimental part: Cells treated with PBS served as a control. Cells were harvested at various time points as listed in figures and subjected to cell viability assay as previously described (Saeki et al., 2000).
(§1) H1299 cells (2×10^5/well) and HUVECs (3×10^5/well) were seeded in six-well plates. […] At 48 hours and […] after the treatment, cells were trypsinized and analyzed for trypan blue cell exclusion assay.

The subject of data set [1] is HUVECs. Nature of the data set: Cell viability assay (trypan blue exclusion). It is filed as cell-based, human. The settings on record: Ad-mda7 1000 vp/cell; Bivacizumab 0.78, 1.56, 3,125 ug/ml; 48 h and 72 h. How it is done: as §1
For data set [2], the system named is HUVECs. The experiment in a line: Endothelial cell proliferation with conditioned medium from treated H1299 cells. It is filed as cell-based, human. As to conditions: medium collected at 48 h; compared to PBS and Ad-luc. How it is done:
For analysis of the effect of conditioned medium from Ad-mda7-treated H1299 on endothelial cell proliferation, human umbilical vein endothelial cells (HUVECs) were seeded in six-well plates (3×10^5 cells/well). […] HUVECs were incubated for an additional 3 days and later harvested and subjected to cell viability assay (Ramesh et al., 2003; Mhashilkar et al., 2001).

In data set [3] the test system is H1299 tumors in nude mice. The experiment in a line: Subcutaneous H1299 xenograft. As to conditions: vector 1×10^10 vp intratumorally, Avastin 5 mg/Kg (100 ug/body) i.p., twice a week, 28 days. It is filed as in vivo, mouse. As for the experimental part:
Bivacizumab (100 ug/body) was given i.p. twice a week. Animals were weighed weekly and tumor growth was measured thrice a week as described previously (Saeki et al., 2002; Ramesh et al., 2003). At 28 days after the first treatment, all animals were killed via CO2 inhalation, and tumors were collected for histopathological examination and Western blot analysis. Two different sets of experiments were done.

The conditions of data set [4]: cited from earlier work; for time of peak plasma levels after an oral dose / delay of plasma levels with a high fat meal: in vivo.
For data set [5], the system named is T47D cells. Nature of the data set: Annexin V apoptosis assay. It is filed as cell-based, human. The settings on record: T47D cells treated with Ad-mda7 2000 vp/cell. How it is done: Apoptosis was measured by TUNEL and Annexin V assays. […] Cell viability was determined by trypan-blue exclusion assay.
A further data set relates to MDA-MB231 cells. Nature of the data set: Cell viability by trypan blue exclusion assay. It is filed as cell-based, human. The settings on record: for cell death (cytotoxicity) by cytokine protein: 30 ng/ml, 96 h. How it is done: (§2) MDA-MB231 and MDA-MB453 breast cancer lines were obtained from the America Type Culture Collection (ATCC, Manassas, Va.) and were maintained in DMEM (Hyclone, Inc., Logan, Utah) supplemented with 10% fetal bovine serum (Life Technologies, Inc.), 100 units/ml penicillin, 100 μg/ml streptomycin, 2 mM L-glutamine, and HEPES buffer (Life Technologies, Inc., Grand Island, N.Y.). The cells were screened routinely to verify lack of mycoplasma contamination and were used in the log phase of growth. […] Rabbit phospho-Stat3 (Tyr705) antibody was purchased from Cell Signaling Technology Inc. (Beverly, Mass.), β-Actin monoclonal antibody and terminal deoxynucleotidyl transferase-mediated dUTP-biotin nick-end labeling (TUNEL) kits were purchased from Oncogene Research Products (San Diego, Calif.), and all other primary and secondary antibodies were purchased from Santa Cruz Biotechnology (Santa Cruz, Calif.). Cell viability was analyzed by trypan blue exclusion assay. Cells were trypsinized and an aliquot suspended 1:1 volume with 0.4% trypan blue.
(§3) Full-length mda-7 cDNA was cloned into pCEP4 FLAG vector (Invitrogen, San Diego, Calif.) containing the CMV promoter. The plasmid was transfected into HEK 293 cells, and stable sub-clones were isolated using hygromycin (0.4 μg/ml).
(§4) The mda-7 gene was linked to an internal CMV-IE promoter, followed by an SV40 polyadenylation sequence. The same adenoviral vector containing the sequence for expression of luciferase (Ad-luc) was used as control virus. Cells were plated 1 day before infection.

The subject of another data set is MDA-MB453 cells. Nature of the data set: Cell viability by trypan blue exclusion assay. It is filed as cell-based, human. As to conditions: for cell death (cytotoxicity) by cytokine protein: 30 ng/ml, 96 h. As for the experimental part:
as §2, §3, §4

For another data set, the system named is STAT3. Nature of the data set: Phospho-STAT3 immunofluorescence assay. It is filed as cell-based, human. As to conditions: MDA-MB231 and MDA-MB453 cells. As for the experimental part: Cells growing in chamber slides were treated with human IL-24 protein in various concentrations (0-20 ng/ml) for 30 min. Cells were fixed with ethanol:acetic acid (9.5:0.5) and then stained with phospho-Stat3 primary antibody and FITC-labeled secondary antibody. The slides were analyzed using a Nikon fluorescence microscope.

For data set [6], the system named is A549 human lung cancer cells. Nature of the data set: Flow cytometry analysis of apoptosis (propidium iodide). It is filed as cell-based. As to conditions: for percentage of apoptosis: 48 hrs. As for the experimental part:
(§5) Apoptosis of cells was measured by propidium iodide staining and FACS analysis. Cells were harvested, pelleted by centrifugation and resuspended in phosphate-buffered saline containing 50 μg/ml propidium iodide, 0.1% Triton X-100, and 0.1% sodium citrate and vortexed prior to FACS analysis (Becton-Dickenson FACScan, Mountain View, Calif.; FL-3 channel).
In general terms: A flow cytometer gives signals particle by particle.

Data set [7] deals with H460 human lung cancer cells. Described as above. It is filed as cell-based. The settings on record: for percentage of apoptosis: 48 hrs. How it is done:
as §5

The test system of data set [8] is T47D cells. Nature of the data set: 3H-thymidine cell proliferation assay. It is filed as cell-based, human. The settings on record: Taxotere 0.5-2 ng/mL, 3 days.
Procedure: (§6) Cells were plated at 500-2000 cells/well in 96-well format for ^3H-thymidine incorporation-assays, or at 10^5-10^6 cells/well in a 6-well plate format for protein expression, trypan blue viability or apoptosis assays. In drug combination studies, drugs were added once just prior to addition of vectors and cells were continuously exposed to agents.
(§7) The cells were harvested using Trypsin/EDTA (GIBCO), collected on a Filter using a Packard Filtermate cell Harvester, and washed in deionized water and methanol following the manufacturer protocols. The filters were dried and analyzed using a Matrix 9600 (Packard).
A further data set relates to MCF-7 cells. The experiment in a line: 3H-thymidine cell proliferation assay. It is filed as cell-based, human. The settings on record: Taxotere 0.5-2 ng/mL, 3 days.
Setting [9] is: 30 ng/ml IL-24 with IL-10 0-300 ng/ml.
[10] abbreviates: 48 h, two doses of 17AAG, combination compared with Ad-luc and 17AAG.

Procedure for MCF-7 cells: as §6, §7

“Bevacizumab: VEGF inhibitor, monoclonal antibody that specifically binds VEGF”: the “cell viability / toxicity” value is on record as “did not show harmful effect” in the data set on H1299 cells and “inhibited HUVEC viability” with HUVECs [1]. The “HUVEC proliferation with conditioned medium from treated H1299 cells” value with HUVECs [2] is on record as “significantly inhibited HUVEC proliferation”. Also, the tumor growth result in data set [3] is “Significant inhibition of tumor growth”.

In the case of `Cc1onc(-c2ccccc2)c1-c1ccc(S(N)(=O)=O)cc1` [valdecoxib, 4-(5-methyl-3-phenyl-4-isoxazolyl)benzenesulfonamide], the “active metabolite concentration in human plasma relative to parent” value in data set [4] (human plasma) is on record as “about 10%”. Besides, in data set [4], the “time of peak plasma levels after an oral dose” value was “about 3 hours” and the “delay of plasma levels with a high fat meal” value is 1 to 2 h.

As for `COC(=O)C[C@H](NC(=O)[C@H](C)NC(=O)[C@@H](NC(=O)OCc1ccccc1)C(C)C)C(=O)CF` [ZVAD] (Cbz-Val-Ala-Asp(OMe)-CH2F), the “reduction of Ad-mda7 induced apoptosis” value with T47D cells [5] is given as 40%.

For the molecule IL-10: recombinant IL-10, the “effect on IL-24-protein-induced killing” value with MDA-MB231 cells (setting [9]) and in the data set on MDA-MB453 cells (setting [9]) was “significantly inhibited IL-24-protein-induced killing in a dose-dependent manner” each time. For the same molecule, the “cell death (cytotoxicity) by cytokine protein” value (“cell death (cytotoxicity)” below) in the data set with MDA-MB231 cells and with MDA-MB453 cells was “none of these induced cell death above background levels” each time. The “STAT3 activation (phospho-STAT3)” value in the data set on STAT3 is reported as “able to activate STAT3”.

Regarding IL-22: IL-10 family cytokine, the “cell death (cytotoxicity)” value with MDA-MB231 cells and with MDA-MB453 cells was “none of these induced cell death above background levels” in each case.

Turning to `C=CCNC1=C2C[C@@H](C)C[C@H](OC)[C@H](O)[C@@H](C)/C=C(\C)[C@H](OC(N)=O)[C@@H](OC)/C=C\C=C(/C)C(=O)NC(=CC1=O)C2=O` [17AAG, 17-allyl-aminogeldanamycin], the “cell death / apoptosis with 17AAG” value in data set [6] (setting [10]) and in data set [7] (setting [10]) was “resulted in cell death” throughout.

`CS(=O)(=O)c1ccc(C2=C(c3ccccc3)C(=O)OC2)cc1` [rofecoxib, 4-[4-(methylsulfonyl)phenyl]-3-phenyl-2-(5H)furanone]: in data set [4], the “time of peak plasma levels after an oral dose” value is 2 to 3 h and the “delay of plasma levels with a high fat meal” value was 1 to 2 h.

Take `COC1=C2C[C@@H](C)C[C@H](OC)[C@H](O)[C@@H](C)/C=C(\C)[C@H](OC(N)=O)[C@@H](OC)/C=C\C=C(/C)C(=O)NC(=CC1=O)C2=O` [GA, Geldanamycin]: the percentage of apoptosis in data set [6] (GA 50 nm) came to 6.3%; in [6] (GA 150 nm), 23.6%; in data set [7] (GA 50 nm) it was 5.7%; in data set [7] (GA 150 nm), 21%.

`CC(=O)O[C@@]12CO[C@@H]1C[C@H](O)[C@@]1(C)C(=O)[C@H](O)C3=C(C)[C@@H](OC(=O)[C@H](O)[C@@H](NC(=O)OC(C)(C)C)c4ccccc4)C[C@@](O)([C@@H](OC(=O)c4ccccc4)[C@H]21)C3(C)C` [Taxotere, docetaxel]: the “inhibition of thymidine incorporation” value in the data set with T47D cells [8] and in the data set with MCF-7 cells was “approximately 40%” in each case.

B1: IL-24: purified human IL-24 (MDA-7) protein from 293-IL24 cell supernatant (protein)
chain: QEFHFGPCQVKGVVPQKLWEAFWAVKDTMQAQDNITSARLLQQEVLQNVSDAESCYLVHTLLEFYLKTVFKNYHNRTVEVRTLKSFSTLANNFVLIVSQLQPSQENEMFSIRDSAHRRFLLFRRAFKQLDVEAALTKALGEVDILLTWMQKFYKL
As to B1, the “cell death (cytotoxicity)” value in the data set with MDA-MB231 cells and in the data set on MDA-MB453 cells was “induction of significant cell death” throughout. Moreover, the “STAT3 activation (phospho-STAT3)” value in the data set with STAT3 is on record as “able to activate STAT3”.

B2: IL-19: IL-10 family cytokine (protein, UniProt Q9UHD0 25-177, looked up)
Interleukin-19: LRRCLISTDMHHIEESFQEIKRAIQAKDTFPNVTILSTLETLQIIKPLDVCCVTKNLLAFYVDRVFKDHQEPNPKILRKISSIANSFLYMQKTLRQCQEQRQCHCRQEATNATRVIHDNYDQLEVHAAAIKSLGELDVFLAWINKNHEVMFSA
With B2, the “cell death (cytotoxicity)” value in the data set with MDA-MB231 cells and with MDA-MB453 cells was “none of these induced cell death above background levels” each time.
